In ChEMBL document CHEMBL4814029, “Design, synthesis, and structure-activity relationship of programmed cell death-1/programmed cell death-ligand 1 interaction inhibitors bearing a benzo[d]isothiazole scaffold” (Eur J Med Chem, 2021):

Experiments:
[1] = molecular target: Programmed cell death protein 1/Programmed cell death 1 ligand 1 (Homo sapiens, UniProt Q15116+Q9NZQ7); experiment: Inhibition of Tag2-PD-1/Tag1-PDL-1 (unknown origin) interaction incubated for 15 mins by TR-FRET assay; format: protein-complex assay
[2] = molecular target: Programmed cell death 1 ligand 1 (Homo sapiens, UniProt Q9NZQ7); experiment: Inhibition of PDL1 (unknown origin)
[3] = Growth inhibition of CHO cells expressing PDL-1/TCRa incubated for 24 hrs by Cell Titer-Glo luminescent cell viability assay; format: cell-based, Cricetulus griseus; conditions: chinese hamster
[4] = Growth inhibition of CHO cells expressing PDL-1/TCRa measured after 24 hrs co-culturing with human Jurkat cells expressing PD-1/NFAT-Luc in presence of compound by Cell Titer-Glo luminescent cell viability assay; format: cell-based, Cricetulus griseus; conditions: chinese hamster
[5] = Inhibition of PD-1/PDL-1-mediated immune checkpoint using CHO cells expressing PDL-1/TCRa and human Jurkat cells expressing PD-1/NFAT-Luc assessed as Jurkat T lymphocyte activation by measuring maximal luminescence value measured after 6 hrs by luciferase reporter gene based luminescence assay
[6] = Inhibition of PD-1/PDL-1-mediated immune checkpoint using CHO cells expressing PDL-1/TCRa and human Jurkat cells expressing PD-1/NFAT-Luc assessed as Jurkat T lymphocyte activation measured after 6 hrs by luciferase reporter gene based luminescence assay

Sequence of Programmed cell death protein 1/Programmed cell death 1 ligand 1 (Q15116 whole entry): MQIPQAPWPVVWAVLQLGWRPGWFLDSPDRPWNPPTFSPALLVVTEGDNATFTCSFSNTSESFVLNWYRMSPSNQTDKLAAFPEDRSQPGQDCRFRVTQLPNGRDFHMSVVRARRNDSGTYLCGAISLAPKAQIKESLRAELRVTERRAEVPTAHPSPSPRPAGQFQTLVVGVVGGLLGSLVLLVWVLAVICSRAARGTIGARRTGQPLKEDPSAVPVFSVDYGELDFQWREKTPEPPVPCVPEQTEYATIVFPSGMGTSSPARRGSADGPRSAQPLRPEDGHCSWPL
Sequence of Programmed cell death protein 1/Programmed cell death 1 ligand 1 (Q9NZQ7 whole entry): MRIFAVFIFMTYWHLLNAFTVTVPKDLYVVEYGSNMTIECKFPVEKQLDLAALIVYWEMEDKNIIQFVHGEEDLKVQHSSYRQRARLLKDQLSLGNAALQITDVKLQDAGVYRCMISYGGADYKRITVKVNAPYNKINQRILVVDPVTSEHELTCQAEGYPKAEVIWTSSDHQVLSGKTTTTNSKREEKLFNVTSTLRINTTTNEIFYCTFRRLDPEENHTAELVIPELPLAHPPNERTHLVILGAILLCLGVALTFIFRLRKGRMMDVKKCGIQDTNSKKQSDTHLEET
Sequence of Programmed cell death 1 ligand 1 (Q9NZQ7 whole entry): as above

Row | Compound | IC50 [1] [µM] | other results
1 | C[C@@H](NCc1ccc2c(Nc3cccc(-c4ccc5c(c4)OCCO5)c3Cl)nsc2c1)C(=O)O | 0.0434 | 
2 | C[C@H](NCc1ccc2c(Nc3cccc(-c4ccc5c(c4)OCCO5)c3Cl)nsc2c1)C(=O)O | 0.0444 | 
3 | OC1CCN(Cc2ccc3c(Nc4cccc(-c5ccc6c(c5)OCCO6)c4Cl)nsc3c2)C1 (racemic) | 0.0584 | 
4 | C[C@@H](O)[C@H](NCc1cc(Cl)c(OCc2cccc(-c3ccccc3)c2Br)cc1OCC1CC1)C(=O)O |  | IC50 [2]: 0.0102 µM
5 | O=C(O)C[C@H](NCc1ccc2c(Nc3cccc(-c4ccc5c(c4)OCCO5)c3Cl)nsc2c1)C(=O)O | 0.474 | 
6 | OC1CCCN(Cc2ccc3snc(Nc4cccc(-c5ccc6c(c5)OCCO6)c4Cl)c3c2)C1 (racemic) | 0.327 | 
7 | O=C(O)[C@H](CO)NCc1ccc2c(Nc3cccc(-c4ccc5nccnc5c4)c3Cl)nsc2c1 | > 1 | 
8 | Cc1c(Nc2nsc3cc(CN[C@@H](CO)C(=O)O)ccc23)cccc1-c1ccc2c(c1)OCCO2 | 0.078 | 
9 | CC1(O)CCN(Cc2ccc3snc(Nc4cccc(-c5ccc6c(c5)OCCO6)c4Cl)c3c2)C1 (racemic) | 0.177 | 
10 | O=C(O)C1CCN(Cc2ccc3c(Nc4cccc(-c5ccc6c(c5)OCCO6)c4Cl)nsc3c2)C1 (racemic) | 0.0733 | 
11 | O=C(O)C1CCCN(Cc2ccc3c(Nc4cccc(-c5ccc6c(c5)OCCO6)c4Cl)nsc3c2)C1 (racemic) | 0.517 | 
12 | CC(C)[C@H](NCc1ccc2c(Nc3cccc(-c4ccc5c(c4)OCCO5)c3Cl)nsc2c1)C(=O)O | 0.0737 | 
13 | COC[C@H](NCc1ccc2c(Nc3cccc(-c4ccc5c(c4)OCCO5)c3Cl)nsc2c1)C(=O)O | 0.0791 | 
14 | O=C(O)[C@@H]1C[C@@H](O)CN1Cc1ccc2c(Nc3cccc(-c4ccc5c(c4)OCCO5)c3Cl)nsc2c1 | 0.0177 | 
15 | CN(CC(=O)O)Cc1ccc2c(Nc3cccc(-c4ccc5c(c4)OCCO5)c3Cl)nsc2c1 | 0.147 | 
16 | OC1CCN(Cc2ccc3snc(Nc4cccc(-c5ccc6c(c5)OCCO6)c4Cl)c3c2)C1 (racemic) | 0.251 | 
17 | O[C@@H]1CCN(Cc2ccc3c(Nc4cccc(-c5ccc6c(c5)OCCO6)c4Cl)nsc3c2)C1 | 0.106 | 
18 | COc1ccc(-c2cccc(Nc3nsc4cc(CN[C@@H](CO)C(=O)O)ccc34)c2Cl)cc1OC | > 1 | 
19 | O=C(O)[C@H](CO)NCc1ccc2c(Nc3cccc(-c4ccc5c(c4)OCO5)c3Cl)nsc2c1 | 0.0347 | 
20 | N#Cc1cncc(COc2cc(OC3CCc4c(-c5ccccc5)cccc43)c(Cl)cc2CN[C@@H](CO)C(=O)O)c1 (stereo partly drawn) |  | IC50 [2]: < 0.1 µM
21 | O[C@H]1CCN(Cc2ccc3c(Nc4cccc(-c5ccc6c(c5)OCCO6)c4Cl)nsc3c2)C1 | 0.109 | 
22 | O=C(O)[C@H](CO)NCc1ccc2c(Nc3cccc(-c4ccc5c(c4)OCCO5)c3F)nsc2c1 | 0.486 | 

Row | Compound | IC50 [1] [µM] | other results
23 | O=C(O)[C@H](CO)NCc1ccc2c(Nc3cccc(-c4cccc5c4CCN5CCCN4CCC(O)C4)c3Cl)nsc2c1 (stereo partly drawn) | 0.231 | 
24 | CC1(O)CCN(Cc2ccc3c(Nc4cccc(-c5ccc6c(c5)OCCO6)c4Cl)nsc3c2)C1 (racemic) | 0.0987 | 
25 | Cc1c(COc2cc(OCc3cccc(C#N)c3)c(CN3C[C@H](O)C[C@@H]3C(=O)O)cc2Cl)cccc1-c1ccc2c(c1)OCCO2 |  | GI50 at 24 h [3]: > 30 µM; GI50 at 24 h [4]: > 30 µM; RLU [5]: 2240; EC50 [6]: 3.1 µM; inhibition [6]: Dose-Dependent Effect
26 | O=C(O)[C@H](CO)NCc1ccc2c(Nc3cccc(-c4cccc(O)c4)c3Cl)nsc2c1 | 0.143 | 
27 | O=C(O)C1CCN(Cc2ccc3c(Nc4cccc(-c5ccc6c(c5)OCCO6)c4Cl)nsc3c2)CC1 | 0.0601 | 
28 | O=C(O)CCCCOc1ccc(-c2cccc(Nc3nsc4cc(CN[C@@H](CO)C(=O)O)ccc34)c2Cl)cc1 | > 1 | 
29 | O=C(O)CCCCOc1cccc(-c2cccc(Nc3nsc4cc(CN[C@@H](CO)C(=O)O)ccc34)c2Cl)c1 | > 1 | 
30 | O=C(O)[C@H](CO)NCc1ccc2c(Nc3cccc(-c4ccccc4)c3Cl)nsc2c1 | 0.0403 | 
31 | N#Cc1c(NC(=O)c2nc3c(s2)CNCC3)cccc1-c1ccc2c(c1)OCCO2 |  | IC50 [2]: < 0.1 µM
32 | O=C(O)CNCc1ccc2c(Nc3cccc(-c4ccc5c(c4)OCCO5)c3Cl)nsc2c1 | 0.0356 | 
33 | OCC(CO)NCc1ccc2c(Nc3cccc(-c4ccc5c(c4)OCCO5)c3Cl)nsc2c1 | 0.0583 | 
34 | Cc1cc(C(=O)Nc2cccc(-c3ccc4c(c3)OCCO4)c2C)ncc1CN1CCCC[C@H]1C(=O)O |  | IC50 [2]: < 0.01 µM
35 | O=C(O)[C@H](CO)NCc1ccc2c(Nc3cccc(-c4ccc5c(c4)OCCO5)c3Cl)nsc2c1 | 0.0085 | GI50 at 24 h [3]: > 30 µM; GI50 at 24 h [4]: > 30 µM; RLU [5]: 3260; EC50 [6]: 5.6 µM; inhibition [6]: Dose-Dependent Effect
36 | COc1c(Nc2nsc3cc(CN[C@@H](CO)C(=O)O)ccc23)cccc1-c1ccc2c(c1)OCCO2 | > 1 | 
37 | O=C(O)[C@@H](CO)NCc1ccc2c(Nc3cccc(-c4ccc5c(c4)OCCO5)c3Cl)nsc2c1 | 0.0108 | 
38 | O=C(O)C1CN(Cc2ccc3c(Nc4cccc(-c5ccc6c(c5)OCCO6)c4Cl)nsc3c2)C1 | 0.0726 | 
39 | OC1CCCN(Cc2ccc3c(Nc4cccc(-c5ccc6c(c5)OCCO6)c4Cl)nsc3c2)C1 (racemic) | 0.164 | 
40 | OC1CCN(Cc2ccc3snc(Nc4cccc(-c5ccc6c(c5)OCCO6)c4Cl)c3c2)CC1 | 0.854 | 
41 | OC1CCN(Cc2ccc3c(Nc4cccc(-c5ccc6c(c5)OCCO6)c4Cl)nsc3c2)CC1 | 0.158 | 
42 | O=C(O)[C@H](CO)NCc1ccc2c(Nc3cccc(-c4ccc5c(c4)OCCO5)c3)nsc2c1 | > 1 | 
43 | O=C(O)C1CCN1Cc1ccc2c(Nc3cccc(-c4ccc5c(c4)OCCO5)c3Cl)nsc2c1 (racemic) | 0.131 | 
44 | O=C(O)C1CCCN1Cc1ccc2c(Nc3cccc(-c4ccc5c(c4)OCCO5)c3Cl)nsc2c1 (racemic) | 0.11 | 
